# In US10870647B2, “Imidazopyridine derivative, method for preparing same, and pharmaceutical composition containing same as active ingredient for preventing or treating cancer” (DAEGU-GYEONGBUK MEDICAL INNOVATION FOUNDATION, priority 2016, dated 2020):
# What was measured:
# Assay in all cases: Kinase selectivity, scanMAX Kinase assay panel (DiscoverX), % control at 1 uM
# Format in all cases: binding
# [1] = molecular target: T1, scanMAX Kinase assay panel (Homo sapiens, UniProt O95382); conditions: ASK2; 1 uM; read-out: Percent Control (%)
# T1 construct: purchased DiscoverX
# T1 sequence (O95382 1-1288): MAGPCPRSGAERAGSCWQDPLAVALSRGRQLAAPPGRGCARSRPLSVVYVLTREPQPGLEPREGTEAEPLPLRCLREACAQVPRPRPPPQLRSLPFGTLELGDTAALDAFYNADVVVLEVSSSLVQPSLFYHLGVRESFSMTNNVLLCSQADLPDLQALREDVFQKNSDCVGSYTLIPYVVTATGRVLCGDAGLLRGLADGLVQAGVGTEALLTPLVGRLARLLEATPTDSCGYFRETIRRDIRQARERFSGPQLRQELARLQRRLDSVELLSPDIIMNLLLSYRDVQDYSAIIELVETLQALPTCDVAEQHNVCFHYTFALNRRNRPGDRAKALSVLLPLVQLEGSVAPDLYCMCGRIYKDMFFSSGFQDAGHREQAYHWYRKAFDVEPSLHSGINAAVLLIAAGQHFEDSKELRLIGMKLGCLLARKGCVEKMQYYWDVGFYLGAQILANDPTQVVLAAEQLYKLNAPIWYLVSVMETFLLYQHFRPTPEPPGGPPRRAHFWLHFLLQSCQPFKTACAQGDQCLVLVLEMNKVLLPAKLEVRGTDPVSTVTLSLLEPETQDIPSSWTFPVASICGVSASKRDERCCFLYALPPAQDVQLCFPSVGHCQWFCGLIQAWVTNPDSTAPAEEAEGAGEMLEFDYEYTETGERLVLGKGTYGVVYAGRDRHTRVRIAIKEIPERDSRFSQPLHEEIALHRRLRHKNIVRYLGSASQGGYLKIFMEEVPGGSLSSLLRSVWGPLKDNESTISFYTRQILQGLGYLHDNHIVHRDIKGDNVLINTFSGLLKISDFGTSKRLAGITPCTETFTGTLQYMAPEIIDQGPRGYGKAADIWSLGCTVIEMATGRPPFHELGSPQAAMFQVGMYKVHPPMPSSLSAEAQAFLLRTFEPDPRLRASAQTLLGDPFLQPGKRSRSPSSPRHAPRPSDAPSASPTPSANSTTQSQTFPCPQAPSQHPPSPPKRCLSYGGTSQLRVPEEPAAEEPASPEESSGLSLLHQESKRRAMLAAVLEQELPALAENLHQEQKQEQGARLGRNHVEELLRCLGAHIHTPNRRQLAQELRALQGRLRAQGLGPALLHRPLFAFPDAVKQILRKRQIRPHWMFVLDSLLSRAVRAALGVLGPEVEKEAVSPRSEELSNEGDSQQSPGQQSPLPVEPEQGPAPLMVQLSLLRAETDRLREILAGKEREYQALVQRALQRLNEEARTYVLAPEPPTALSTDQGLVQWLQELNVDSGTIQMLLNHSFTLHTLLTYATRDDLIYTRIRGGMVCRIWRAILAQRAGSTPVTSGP
# How it was run: (§1)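 Read-out is percent of control, derived from the signal with compound relative to positive and negative controls: (compound − positive)/(negative − positive) × 100. Each enzyme received test drug at 1 uM in DMSO, and values under 35% count as active.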
# [2] = molecular target: T2, scanMAX Kinase assay panel (Homo sapiens, UniProt P15056); conditions: BRAF; 1 uM; read-out: Percent Control (%)
# T2 construct: purchased DiscoverX
# T2 sequence (P15056 whole entry): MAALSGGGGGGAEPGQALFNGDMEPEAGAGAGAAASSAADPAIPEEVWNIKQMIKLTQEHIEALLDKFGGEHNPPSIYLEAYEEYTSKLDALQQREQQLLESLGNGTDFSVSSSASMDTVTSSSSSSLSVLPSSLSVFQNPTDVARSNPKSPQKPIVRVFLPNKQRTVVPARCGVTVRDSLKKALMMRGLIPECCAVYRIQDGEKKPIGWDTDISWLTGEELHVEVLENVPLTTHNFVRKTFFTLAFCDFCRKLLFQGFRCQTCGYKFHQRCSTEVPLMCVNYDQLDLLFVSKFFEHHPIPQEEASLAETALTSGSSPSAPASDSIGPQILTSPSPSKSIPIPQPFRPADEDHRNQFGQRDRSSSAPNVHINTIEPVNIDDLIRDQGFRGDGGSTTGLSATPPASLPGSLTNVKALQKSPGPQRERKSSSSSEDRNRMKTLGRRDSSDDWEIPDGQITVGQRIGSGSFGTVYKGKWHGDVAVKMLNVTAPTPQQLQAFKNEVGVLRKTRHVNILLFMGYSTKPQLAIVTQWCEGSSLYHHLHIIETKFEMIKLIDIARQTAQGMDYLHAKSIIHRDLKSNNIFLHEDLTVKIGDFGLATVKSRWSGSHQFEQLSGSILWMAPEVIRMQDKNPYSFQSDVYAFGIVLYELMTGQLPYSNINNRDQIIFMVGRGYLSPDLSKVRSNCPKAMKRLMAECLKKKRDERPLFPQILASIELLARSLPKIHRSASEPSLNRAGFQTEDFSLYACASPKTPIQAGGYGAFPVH
# How it was run: as §1
# [3] = molecular target: T3, scanMAX Kinase assay panel (Homo sapiens, UniProt Q05397); conditions: FAK; 1 uM; read-out: Percent Control (%)
# T3 construct: purchased DiscoverX
# T3 sequence (Q05397 whole entry): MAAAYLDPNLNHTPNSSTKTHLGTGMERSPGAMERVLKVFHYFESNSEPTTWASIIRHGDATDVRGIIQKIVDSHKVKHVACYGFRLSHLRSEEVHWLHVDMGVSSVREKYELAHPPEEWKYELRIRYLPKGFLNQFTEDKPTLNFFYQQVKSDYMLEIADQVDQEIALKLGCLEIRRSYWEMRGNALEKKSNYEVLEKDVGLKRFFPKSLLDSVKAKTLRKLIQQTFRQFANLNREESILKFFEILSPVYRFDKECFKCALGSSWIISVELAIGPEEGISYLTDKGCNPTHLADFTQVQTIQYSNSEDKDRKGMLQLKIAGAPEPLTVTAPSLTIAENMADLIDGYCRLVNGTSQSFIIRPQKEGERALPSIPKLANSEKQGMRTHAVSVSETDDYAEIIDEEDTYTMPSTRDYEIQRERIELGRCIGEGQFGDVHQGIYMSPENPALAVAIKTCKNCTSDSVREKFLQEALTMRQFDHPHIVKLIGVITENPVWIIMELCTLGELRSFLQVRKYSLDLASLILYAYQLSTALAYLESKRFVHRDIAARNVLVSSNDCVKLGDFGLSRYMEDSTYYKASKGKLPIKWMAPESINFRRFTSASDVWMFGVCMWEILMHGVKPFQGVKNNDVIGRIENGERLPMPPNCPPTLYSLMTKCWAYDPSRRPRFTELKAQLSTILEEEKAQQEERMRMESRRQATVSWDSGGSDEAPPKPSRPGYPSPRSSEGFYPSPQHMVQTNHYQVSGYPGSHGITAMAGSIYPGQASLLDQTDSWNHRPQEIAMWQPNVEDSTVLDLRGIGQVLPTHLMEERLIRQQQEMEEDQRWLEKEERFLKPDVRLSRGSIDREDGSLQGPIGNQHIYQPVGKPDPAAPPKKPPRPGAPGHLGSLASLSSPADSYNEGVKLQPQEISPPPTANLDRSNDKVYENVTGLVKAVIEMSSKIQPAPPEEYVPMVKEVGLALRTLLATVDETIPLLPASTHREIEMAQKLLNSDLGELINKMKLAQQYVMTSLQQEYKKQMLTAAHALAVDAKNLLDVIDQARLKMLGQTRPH
# How it was run: as §1
# [4] = molecular target: T4, scanMAX Kinase assay panel (Homo sapiens, UniProt Q16816); conditions: PHKG1; 1 uM; read-out: Percent Control (%)
# T4 construct: purchased DiscoverX
# T4 sequence (Q16816 whole entry): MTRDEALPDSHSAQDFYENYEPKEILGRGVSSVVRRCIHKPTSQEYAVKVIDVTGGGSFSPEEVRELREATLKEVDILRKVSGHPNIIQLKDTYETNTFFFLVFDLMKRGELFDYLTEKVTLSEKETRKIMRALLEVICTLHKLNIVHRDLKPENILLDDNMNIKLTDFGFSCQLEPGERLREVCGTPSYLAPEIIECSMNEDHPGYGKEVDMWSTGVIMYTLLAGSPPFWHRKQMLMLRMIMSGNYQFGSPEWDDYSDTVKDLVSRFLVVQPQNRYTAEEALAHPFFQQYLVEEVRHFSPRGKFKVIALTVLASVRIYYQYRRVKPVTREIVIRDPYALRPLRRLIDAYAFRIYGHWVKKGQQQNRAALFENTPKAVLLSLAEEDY
# How it was run: as §1
# [5] = molecular target: T5, scanMAX Kinase assay panel (Homo sapiens, UniProt P00533, L861Q); conditions: EGFR (L861Q); 1 uM; read-out: Percent Control (%)
# T5 construct: purchased DiscoverX
# T5 sequence (P00533 25-1210 L861Q): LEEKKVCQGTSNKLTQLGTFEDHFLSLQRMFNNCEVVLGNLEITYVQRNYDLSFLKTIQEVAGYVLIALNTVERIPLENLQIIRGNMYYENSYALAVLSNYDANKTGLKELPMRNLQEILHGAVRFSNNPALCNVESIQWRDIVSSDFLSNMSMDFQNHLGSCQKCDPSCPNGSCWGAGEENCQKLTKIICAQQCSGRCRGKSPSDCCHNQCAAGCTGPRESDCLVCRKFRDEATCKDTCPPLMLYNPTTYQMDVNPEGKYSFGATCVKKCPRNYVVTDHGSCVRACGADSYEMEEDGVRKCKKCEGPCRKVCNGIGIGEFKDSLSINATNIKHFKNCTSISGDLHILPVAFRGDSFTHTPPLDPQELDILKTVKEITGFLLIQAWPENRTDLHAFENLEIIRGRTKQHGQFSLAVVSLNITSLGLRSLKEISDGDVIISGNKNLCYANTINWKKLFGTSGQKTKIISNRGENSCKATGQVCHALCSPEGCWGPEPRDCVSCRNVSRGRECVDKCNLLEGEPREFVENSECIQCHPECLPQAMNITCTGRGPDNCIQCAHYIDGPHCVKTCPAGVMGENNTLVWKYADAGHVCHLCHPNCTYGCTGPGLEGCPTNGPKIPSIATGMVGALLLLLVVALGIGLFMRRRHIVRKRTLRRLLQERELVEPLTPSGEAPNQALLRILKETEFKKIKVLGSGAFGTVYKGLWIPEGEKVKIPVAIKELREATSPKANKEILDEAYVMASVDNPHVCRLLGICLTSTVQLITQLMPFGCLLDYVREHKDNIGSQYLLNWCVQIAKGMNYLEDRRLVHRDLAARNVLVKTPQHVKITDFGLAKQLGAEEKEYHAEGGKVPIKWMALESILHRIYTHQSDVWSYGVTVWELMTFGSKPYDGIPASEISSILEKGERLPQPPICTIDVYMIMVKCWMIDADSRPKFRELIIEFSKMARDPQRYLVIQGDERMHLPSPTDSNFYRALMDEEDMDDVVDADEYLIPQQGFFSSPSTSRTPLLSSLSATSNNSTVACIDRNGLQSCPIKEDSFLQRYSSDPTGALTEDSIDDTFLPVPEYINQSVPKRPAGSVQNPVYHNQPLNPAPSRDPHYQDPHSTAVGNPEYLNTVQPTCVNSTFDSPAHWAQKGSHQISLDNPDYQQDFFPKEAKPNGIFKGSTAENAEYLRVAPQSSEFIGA
# How it was run: as §1
# [6] = molecular target: T6, scanMAX Kinase assay panel (Homo sapiens, UniProt P54762); conditions: EPHB1; 1 uM; read-out: Percent Control (%)
# T6 construct: purchased DiscoverX
# T6 sequence (P54762 18-984): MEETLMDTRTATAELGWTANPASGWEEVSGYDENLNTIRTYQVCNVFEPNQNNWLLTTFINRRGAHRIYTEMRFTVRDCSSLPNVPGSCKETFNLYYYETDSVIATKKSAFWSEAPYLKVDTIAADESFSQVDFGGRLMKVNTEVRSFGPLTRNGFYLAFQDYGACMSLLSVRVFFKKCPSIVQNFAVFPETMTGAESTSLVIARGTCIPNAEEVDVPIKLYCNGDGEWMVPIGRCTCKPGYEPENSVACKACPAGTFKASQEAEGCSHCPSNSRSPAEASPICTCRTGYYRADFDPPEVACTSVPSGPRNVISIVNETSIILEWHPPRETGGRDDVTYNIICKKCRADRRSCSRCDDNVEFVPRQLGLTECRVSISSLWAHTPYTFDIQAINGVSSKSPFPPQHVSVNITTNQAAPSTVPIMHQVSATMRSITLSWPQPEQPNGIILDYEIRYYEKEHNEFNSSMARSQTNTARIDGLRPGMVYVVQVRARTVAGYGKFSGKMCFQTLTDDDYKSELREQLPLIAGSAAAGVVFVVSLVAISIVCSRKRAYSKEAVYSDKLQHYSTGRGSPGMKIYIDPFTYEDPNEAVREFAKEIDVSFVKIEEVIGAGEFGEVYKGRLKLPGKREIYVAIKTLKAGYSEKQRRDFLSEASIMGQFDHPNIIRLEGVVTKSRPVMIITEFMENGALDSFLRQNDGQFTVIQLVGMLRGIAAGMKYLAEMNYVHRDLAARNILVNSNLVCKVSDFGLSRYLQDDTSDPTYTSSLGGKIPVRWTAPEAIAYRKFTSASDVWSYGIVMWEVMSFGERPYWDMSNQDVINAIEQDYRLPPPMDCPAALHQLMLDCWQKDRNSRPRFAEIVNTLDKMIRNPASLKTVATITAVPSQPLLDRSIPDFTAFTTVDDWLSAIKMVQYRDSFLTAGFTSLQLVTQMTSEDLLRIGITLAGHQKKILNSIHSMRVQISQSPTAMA
# How it was run: as §1
# [7] = molecular target: T7, scanMAX Kinase assay panel (Homo sapiens, UniProt Q8TDX7); conditions: NEK7; 1 uM; read-out: Percent Control (%)
# T7 construct: purchased DiscoverX
# T7 sequence (Q8TDX7 whole entry): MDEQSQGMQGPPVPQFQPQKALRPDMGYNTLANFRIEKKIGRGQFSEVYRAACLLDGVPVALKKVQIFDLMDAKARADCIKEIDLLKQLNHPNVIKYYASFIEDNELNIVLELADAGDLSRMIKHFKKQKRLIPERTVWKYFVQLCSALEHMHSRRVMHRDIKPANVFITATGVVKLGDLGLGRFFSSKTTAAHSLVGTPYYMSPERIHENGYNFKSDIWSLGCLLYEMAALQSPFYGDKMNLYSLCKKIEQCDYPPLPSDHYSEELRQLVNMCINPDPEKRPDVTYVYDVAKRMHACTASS
# How it was run: as §1
Structure (SMILES),remaining binding at 1 µM [1],remaining binding at 1 µM [2],remaining binding at 1 µM [3],remaining binding at 1 µM [4],remaining binding at 1 µM [5],remaining binding at 1 µM [6],remaining binding at 1 µM [7]
"Cc1ccc(C(=O)Nc2ccc(CN3CCN(C)CC3)c(C(F)(F)F)c2)cc1C#Cc1cnc2c(Nc3cnn(C)c3)cccn12 [Example 1, 4-methyl-3-((8-((1-methyl-1H-pyrazol-4-yl)amino)imidazo[1,2-a]pyridin-3-yl)ethynyl)-N-(4-((4-methylpiperazin-1-yl)methyl)-3-(trifluoromethyl)phenyl)benzamide]",71%,18%,39%,85%,1%,0%,71%
"Cc1cn(-c2cc(NC(=O)c3ccc(C)c(C#Cc4cnc5c(Nc6cnn(C)c6)cccn45)c3)cc(C(F)(F)F)c2)cn1 [Example 12, 4-methyl-N-(3-(4-methyl-1H-imidazol-1-yl)-5-(trifluoromethyl)phenyl)-3-((8-((1-methyl-1H-pyrazol-4-yl)amino)imidazo[1,2-a]pyridin-3-yl)ethynyl)benzamide]",81%,80%,10%,84%,22%,15%,82%
Cc1ccc(NC(=O)C2(C(=O)Nc3ccc(F)cc3)CC2)cc1C#Cc1cnc2c(Nc3cnn(C(C)C)c3)cccn12 [Example 78],100%,100%,96%,88%,92%,90%,100%
